Experimental data reported in US20190211099A1, “METHODS AND COMPOSITIONS FOR TREATING CANCER WITH SIGLEC-9 ACTIVITY MODULATORS” (KING'S COLLEGE LONDON, priority 2016, published 2019).

Legend:
Format in all cases: cell-based, human
monocytes = assay: Nitric oxide release by monocytes (Griess method)
Protocol: MUC1-ST was further evaluated for its ability to produce pro-inflammatory nitric oxide, a product of the arginine processing enzyme (Thompson et al. (2015) CARCINOGENESIS 36: S232-S253). Supernatant was assessed using the Griess method according to the manufacturer's instructions (Biotium).

THP-1 cells = assay: PAI-1, M-CSF and kynurenine in supernatants of differentiated THP-1 cells; conditions: 100 μg/mL MUC1-ST
Protocol: THP-1 cells were cultured at a concentration of 1×10^6/mL in AIM V medium. Cells were differentiated using […] phorbol 12-myristate 13-acetate (PMA) on day 0 and 100 ng/mL LPS on day 3 in the presence or absence of 100 μg/mL MUC1-ST or MUC1-T. Cell supernatants were harvested on day 5 and PAI-I concentration measured by ELISA.
Given that IDO catalyzes the rate-limiting step in the metabolism of tryptophan, the tryptophan metabolite kynurenine was detected as follows. 604, supernatant was mixed with 304, 30% trichloroacetic acid (TCA) and incubated for 30 minutes at 50° C. The supernatant was spun at 3000×g and 50 μL was harvested and mixed with 50 μL freshly prepared Ehrlich Reagent (2% p-dimethylaminobenzaldehyde in glacial acetic acid). After 10 minutes optical density (O.D.) was measured at 492 nm, and concentrations were calculated against a kynurenine standard curve. An increase in the tryptophan metabolite kynurenine was observed (FIG. 11D).
The intracellular effects of MUC1-ST binding to Siglec-9 were further explored in the monocytic cell line, THP-1. THP-1 cells were cultured for three days at a concentration of 1×10^6/mL in AIM V medium and differentiated using […] phorbol 12-myristate 13-acetate (PMA) in the presence or absence of 100 μg/mL MUC1-ST. […] THP-1 cells were further treated with DMSO or the MEK/ERK inhibitor PD98059 at 1004, and the concentration of PAI-1, M-CSF and kynurenine in cell supernatants were measured as described above. […] This increase in concentration was blocked by the MEK/ERK inhibitor PD98059 (FIG. 4I).

monocytes from PBMCs = assay: MUC1-ST mediated TAM formation in monocytes from PBMCs, 7 day serum-free culture
Protocol: To further explore the role of MUC1-ST in inducing a TAM-like phenotype, monocytes from PBMCs were plated in serum-free medium, incubated with MUC1-ST or PBS, and cultured for 7 days.
Intracellular calcium flux can lead to activation of the MEK/ERK pathway (Christo et al. (2015) IMMUNOL. AND CELL BIOLOGY 93: 694-704). […] Furthermore, treatment with the MEK inhibitor PD98059 at 10 μM inhibited MUC1-ST mediated TAM formation in monocytes (FIGS. 12B, 12D-12E).

For “NeuAcα2,3Galβ1-3GalNAc linked via a Ser/Thr of MUC1 [MUC1-ST]”, the nitric oxide production (monocytes) was “produced nitric oxide”, the “PAI-1 concentration in cell supernatants” value (THP-1 cells; THP-1, PMA, three days) was “increased” and the “kynurenine concentration in cell supernatants” value (THP-1 cells; THP-1, PMA, three days) was “increased”. The PAI-I secretion (THP-1 cells; THP-1 differentiated with PMA and LPS, day 5) was “increased”, the “expression of ECM component collagen type I” value (monocytes from PBMCs) was “increased expression” and the “percentage of live macrophages in the culture” value (monocytes from PBMCs; 7 days, serum-free medium) was “increased”. The “expression of TAM markers such as CD206 and PD-L1” value (monocytes from PBMCs; flow cytometry) was “increased expression”.
